pIC50: −log10 of the molar value. Bridge positions count the residues as written; N and C are the ends. Square brackets hold non-standard residues; d marks the D form. Peptide text beside a SMILES is read from it. * marks the point of attachment. ξ: configuration not given here. Phe(3,4-Cl2) = N[C@@H](Cc1ccc(Cl)c(Cl)c1)C(=O)O; Phe(3-CF3) = N[C@@H](Cc1cccc(C(F)(F)F)c1)C(=O)O; Phe(4-COOH) = N[C@@H](Cc1ccc(C(=O)O)cc1)C(=O)O; Bip = N[C@@H](Cc1ccc(-c2ccccc2)cc1)C(=O)O; NH(CH2)14COOH = O=C(O)CCCCCCCCCCCCCCN*; Phe(3-Me) = Cc1cccc(C[C@H](N)C(=O)O)c1; Phe(4-F) = N[C@@H](Cc1ccc(F)cc1)C(=O)O; NH(CH2)12COOH = O=C(O)CCCCCCCCCCCCN*; Val(3-OH) = CC(C)(O)[C@H](N)C(=O)O; hCha = N[C@@H](CCC1CCCCC1)C(=O)O; 3Pal = N[C@@H](Cc1cccnc1)C(=O)O; Cha = N[C@@H](CC1CCCCC1)C(=O)O; Thr(3ξ) = CC(O)[C@H](N)C(=O)O; dDab = NCC[C@@H](N)C(=O)O; Carboxymethyl = O=C(O)C*; Orn = NCCC[C@H](N)C(=O)O; Aun = NCCCCCCCCCCC(=O)O; Dab = NCC[C@H](N)C(=O)O; Dap = NC[C@H](N)C(=O)O; AEEA = NCCOCCOCC(=O)O

This experiment deals with T1, PD-1/PD-L1 interaction (PE-labeled human PD-L1-Ig binding to Jurkat cell line over-expressing human PD-1) (Homo sapiens, UniProt Q15116).
T1 construct: expressed in transfected cells; host or cells: Jurkat
T1 sequence (Q15116 25-288): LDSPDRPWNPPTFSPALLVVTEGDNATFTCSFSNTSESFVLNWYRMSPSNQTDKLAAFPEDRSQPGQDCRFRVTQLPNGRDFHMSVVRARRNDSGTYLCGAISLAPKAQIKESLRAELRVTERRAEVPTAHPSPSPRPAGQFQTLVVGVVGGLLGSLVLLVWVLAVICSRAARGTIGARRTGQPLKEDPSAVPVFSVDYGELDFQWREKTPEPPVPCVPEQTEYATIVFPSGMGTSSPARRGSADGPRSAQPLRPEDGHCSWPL
As to the kind of experiment: Jurkat-PD-1 Cell Binding High-Content Screening Assay (CBA). The class given is cell-based. As to conditions: Jurkat cell line over-expressing human PD-1; PE-labeled PD-L1-Ig 20 nM final; read-out: Jurkat hPD1-PDL1 IC50. In short, it runs like this:
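Jurkat cells over-expressing human PD-1 (8×10^3 per well, DMEM/10% FCS) preincubated with compound 2 h at 37° C, then PE-labeled human PD-L1-Ig (20 nM final) added for 1 h. Cells fixed with paraformaldehyde, Hoechst-stained, and bound fluorescence quantified by high-content imaging.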
As for `CC(C)C[C@H]1NC(=O)[C@H](CCCN)NC(=O)[C@H](Cc2ccc(OCC(=O)O)cc2)NC(=O)[C@H](Cc2ccc(-c3ccccc3)cc2)NC(=O)[C@H](Cc2ccc(OCC(=O)O)cc2)NC(=O)[C@H](Cc2cccc(C(F)(F)F)c2)NC(=O)[C@H](CC(=O)O)NC(=O)[C@H](Cc2ccc(OCC(=O)O)cc2)NC(=O)[C@H](C(C)O)NC(=O)CSC[C@@H](C(=O)N[C@@H](CCN)C(=O)NCCCCCCCCCCC(=O)O)NC(=O)[C@H](CO)NC(=O)[C@H](C(C)(C)O)NC(=O)[C@H](CC2CCCCC2)NC(=O)[C@H](CCN)NC1=O` (stereo partly drawn) [Compound 3818] ({CH2CO}-[Thr(3ξ)]Y(Carboxymethyl)D[Phe(3-CF3)]Y(Carboxymethyl)[Bip]Y(Carboxymethyl)[Orn][dL][Dab][Cha][Val(3-OH)]SC[Dab][Aun]-OH; thioether N-14), the pIC50 is 8.41.
For the molecule `CC(C)C[C@H]1NC(=O)[C@H](CCCN)NC(=O)[C@H](Cc2ccc(O)cc2)NC(=O)[C@H](Cc2ccc(-c3ccccc3)cc2)NC(=O)[C@H](C(C)C)NC(=O)[C@H](Cc2ccc(Cl)c(Cl)c2)NC(=O)[C@H](CC(=O)O)NC(=O)[C@H](Cc2ccc(OCC(=O)O)cc2)NC(=O)[C@H](CN)NC(=O)CSC[C@@H](C(=O)N[C@@H](CCN)C(=O)NCCOCCOCC(=O)NCCCCCCCCCCC(=O)O)NC(=O)[C@H](CCCN)NC(=O)[C@H](C(C)C)NC(=O)[C@H](CC2CCCCC2)NC(=O)[C@H](CCN)NC1=O` [Compound 1310] ({CH2CO}-[Dap]Y(Carboxymethyl)D[Phe(3,4-Cl2)]V[Bip]Y[Orn][dL][Dab][Cha]V[Orn]C[Dab][AEEA][Aun]-OH; thioether N-14), the pIC50 is 7.19.
The result for `Cc1cccc(C[C@@H]2NC(=O)[C@H](CC(=O)O)NC(=O)[C@H](Cc3ccc(OCC(=O)O)cc3)NC(=O)[C@H](CN)NC(=O)CSC[C@@H](C(=O)N[C@@H](CCN)C(=O)NCCCCCCCCCCC(=O)O)NC(=O)[C@@H]([C@H](C)O)NC(=O)[C@H](C(C)C)NC(=O)[C@H](CC3CCCCC3)NC(=O)[C@H](CCN)NC(=O)[C@@H](CC(C)C)NC(=O)[C@H](CCCN)NC(=O)[C@H](Cc3ccc(O)cc3)NC(=O)[C@H](Cc3ccc(-c4ccccc4)cc3)NC(=O)[C@H](C(C)C)NC2=O)c1` [Compound 2722] ({CH2CO}-[Dap]Y(Carboxymethyl)D[Phe(3-Me)]V[Bip]Y[Orn][dL][Dab][Cha]V[dT]C[Dab][Aun]-OH; thioether N-14) reads 7.46.
For `Cc1cccc(C[C@@H]2NC(=O)[C@H](CC(=O)O)NC(=O)[C@H](Cc3ccc(OCC(=O)O)cc3)NC(=O)[C@H](CN)NC(=O)CSC[C@@H](C(=O)N[C@@H](CCN)C(=O)NCCOCCOCC(=O)NCCCCCCCCCCC(=O)O)NC(=O)[C@H](CCC(=O)O)NC(=O)[C@H](C(C)C)NC(=O)[C@H](CCC3CCCCC3)NC(=O)[C@H](CCN)NC(=O)[C@@H](CC(C)C)NC(=O)[C@H](CCCN)NC(=O)[C@H](Cc3ccc(OCC(=O)O)cc3)NC(=O)[C@H](Cc3ccc(-c4ccccc4)cc3)NC(=O)[C@H](Cc3ccc(C(=O)O)cc3)NC2=O)c1` [Compound 1276] ({CH2CO}-[Dap]Y(Carboxymethyl)D[Phe(3-Me)][Phe(4-COOH)][Bip]Y(Carboxymethyl)[Orn][dL][Dab][hCha]VEC[Dab][AEEA][Aun]-OH; thioether N-14), the pIC50 is 7.30.
`CC[C@H](C)[C@@H]1NC(=O)[C@H](Cc2ccc(-c3ccccc3)cc2)NC(=O)[C@H](C(C)C)NC(=O)[C@H](Cc2cccc(C)c2)NC(=O)[C@H](CC(=O)O)NC(=O)[C@H](Cc2ccc(OCC(=O)O)cc2)NC(=O)[C@H](CN)NC(=O)CSC[C@@H](C(=O)N[C@@H](CCN)C(=O)NCCOCCOCC(=O)NCCCCCCCCCCC(=O)O)NC(=O)[C@H](CN)NC(=O)[C@H](C(C)C)NC(=O)[C@H](CC2CCCCC2)NC(=O)[C@H](CCN)NC(=O)[C@@H](CC(C)C)NC(=O)[C@H](CCCN)NC1=O` [Compound 2634] ({CH2CO}-[Dap]Y(Carboxymethyl)D[Phe(3-Me)]V[Bip]I[Orn][dL][Dab][Cha]V[Dap]C[Dab][AEEA][Aun]-OH; thioether N-14): the pIC50 is 7.85.
Regarding `CC(C)C[C@H]1NC(=O)[C@H](CCCN)NC(=O)[C@H](Cc2ccc(OCC(=O)O)cc2)NC(=O)[C@H](Cc2ccc(-c3ccccc3)cc2)NC(=O)[C@H](Cc2ccc(OCC(=O)O)cc2)NC(=O)[C@H](Cc2cccc(C(F)(F)F)c2)NC(=O)[C@H](CC(=O)O)NC(=O)[C@H](Cc2ccc(OCC(=O)O)cc2)NC(=O)[C@H](CC2CCCCC2)NC(=O)CSC[C@@H](C(=O)N[C@H](CCN)C(=O)NCCOCCOCC(=O)NCCCCCCCCCCCCC(=O)O)NC(=O)[C@H](CC(=O)O)NC(=O)[C@H](C(C)C)NC(=O)[C@H](CC2CCCCC2)NC(=O)[C@H](CCN)NC1=O` [Compound 3826] ({CH2CO}-[Cha]Y(Carboxymethyl)D[Phe(3-CF3)]Y(Carboxymethyl)[Bip]Y(Carboxymethyl)[Orn][dL][Dab][Cha]VDC[dDab][AEEA]-{NH(CH2)12COOH}; thioether N-14), the pIC50 was 7.14.
`CC(=O)NCCCC[C@@H]1NC(=O)[C@H](C(C)(C)O)NC(=O)[C@H](CC2CCCCC2)NC(=O)[C@H](CCN)NC(=O)[C@@H](CC(C)C)NC(=O)[C@H](CCCN)NC(=O)[C@H](Cc2ccc(C(=O)O)cc2)NC(=O)[C@H](Cc2ccc(-c3ccccc3)cc2)NC(=O)[C@H](Cc2ccc(C(=O)O)cc2)NC(=O)[C@H](Cc2cccc(C)c2)NC(=O)[C@H](CC(=O)O)NC(=O)[C@H](Cc2ccc(OCC(=O)O)cc2)NC(=O)[C@H](Cc2ccc(OCC(=O)O)cc2)NC(=O)CSC[C@@H](C(=O)N[C@@H](CCN)C(=O)NCCCCCCCCCCCCCCC(=O)O)NC1=O` [Compound 3865] ({CH2CO}-Y(Carboxymethyl)Y(Carboxymethyl)D[Phe(3-Me)][Phe(4-COOH)][Bip][Phe(4-COOH)][Orn][dL][Dab][Cha][Val(3-OH)]K(Ac)C[Dab]-{NH(CH2)14COOH}; thioether N-14): the pIC50 is 6.92.
Next, `Cc1cccc(C[C@@H]2NC(=O)[C@H](CC(=O)O)NC(=O)[C@H](Cc3ccc(F)cc3)NC(=O)[C@H](CCN)NC(=O)CSC[C@@H](C(=O)N[C@@H](CCN)C(=O)NCCCCCCCCCCC(=O)O)NC(=O)[C@H](CO)NC(=O)[C@H](C(C)(C)O)NC(=O)[C@H](CC3CCCCC3)NC(=O)[C@H](Cc3cnc[nH]3)NC(=O)[C@@H](CC(C)C)NC(=O)[C@H](CCCN)NC(=O)[C@H](Cc3ccc(OCC(=O)O)cc3)NC(=O)[C@H](Cc3ccc(-c4ccccc4)cc3)NC(=O)[C@H](Cc3ccc(OCC(=O)O)cc3)NC2=O)c1` [Compound 3732] ({CH2CO}-[Dab][Phe(4-F)]D[Phe(3-Me)]Y(Carboxymethyl)[Bip]Y(Carboxymethyl)[Orn][dL]H[Cha][Val(3-OH)]SC[Dab][Aun]-OH; thioether N-14): 7.25.
In the case of `Cc1cccc(C[C@@H]2NC(=O)[C@H](CC(=O)O)NC(=O)[C@H](Cc3ccc(OCC(=O)O)cc3)NC(=O)[C@H](CN)NC(=O)CSC[C@@H](C(=O)N[C@@H](CCN)C(=O)NCCCCCCCCCCC(=O)O)NC(=O)[C@H](Cc3cccnc3)NC(=O)[C@H](C(C)C)NC(=O)[C@H](CC(C)C)NC(=O)[C@H](CCN)NC(=O)[C@@H](CC(C)C)NC(=O)[C@H](CCCN)NC(=O)[C@H](Cc3ccc(O)cc3)NC(=O)[C@H](Cc3ccc(-c4ccccc4)cc3)NC(=O)[C@H](C(C)C)NC2=O)c1` [Compound 2765] ({CH2CO}-[Dap]Y(Carboxymethyl)D[Phe(3-Me)]V[Bip]Y[Orn][dL][Dab]LV[3Pal]C[Dab][Aun]-OH; thioether N-14), the negative-log IC50 (pIC50) is 7.20.
As to `Cc1cccc(C[C@@H]2NC(=O)[C@H](CC(=O)O)NC(=O)[C@H](Cc3ccc(OCC(=O)O)cc3)NC(=O)[C@H](CCCNC(=N)N)NC(=O)CSC[C@@H](C(=O)N[C@@H](CCN)C(=O)NCCCCCCCCCCC(=O)O)NC(=O)[C@H](C(C)O)NC(=O)[C@H](C(C)(C)O)NC(=O)[C@H](CC3CCCCC3)NC(=O)[C@H](CCN)NC(=O)[C@@H](CC(C)C)NC(=O)[C@H](CCCN)NC(=O)[C@H](Cc3ccc(OCC(=O)O)cc3)NC(=O)[C@H](Cc3ccc(-c4ccccc4)cc3)NC(=O)[C@H](Cc3ccc(OCC(=O)O)cc3)NC2=O)c1` (stereo partly drawn) [Compound 3513] ({CH2CO}-RY(Carboxymethyl)D[Phe(3-Me)]Y(Carboxymethyl)[Bip]Y(Carboxymethyl)[Orn][dL][Dab][Cha][Val(3-OH)][Thr(3ξ)]C[Dab][Aun]-OH; thioether N-14), the pIC50 is 7.97.
On to `CC(C)C[C@@H]1NC(=O)[C@H](Cc2c[nH]c3ccccc23)NC(=O)[C@H](CC(=O)O)NC(=O)[C@H](Cc2ccc(OCC(=O)O)cc2)NC(=O)[C@H](CN)NC(=O)CSC[C@@H](C(=O)N[C@@H](CCN)C(=O)NCCCCCCCCCCC(=O)O)NC(=O)[C@H](CCN)NC(=O)[C@H](C(C)O)NC(=O)[C@H](CC2CCCCC2)NC(=O)[C@H](CCN)NC(=O)[C@@H](CC(C)C)NC(=O)[C@H](CCCN)NC(=O)[C@H](Cc2ccc(O)cc2)NC(=O)[C@H](Cc2ccc(-c3ccccc3)cc2)NC1=O` (stereo partly drawn) [Compound 3681] ({CH2CO}-[Dap]Y(Carboxymethyl)DWL[Bip]Y[Orn][dL][Dab][Cha][Thr(3ξ)][Dab]C[Dab][Aun]-OH; thioether N-14), for which the pIC50 was 7.14.
Regarding `Cc1cccc(C[C@@H]2NC(=O)[C@H](CC(=O)O)NC(=O)[C@H](Cc3ccc(OCC(=O)O)cc3)NC(=O)[C@H](CN)NC(=O)CSC[C@@H](C(=O)NCCOCCOCC(=O)N[C@@H](CCN)C(=O)NCCCCCCCCCCC(=O)O)NC(=O)[C@H](CN)NC(=O)[C@H](C(C)C)NC(=O)[C@H](CC3CCCCC3)NC(=O)[C@H](CCN)NC(=O)[C@@H](CC(C)C)NC(=O)[C@H](CCCN)NC(=O)[C@H](CCC(=O)O)NC(=O)[C@H](Cc3ccc(-c4ccccc4)cc3)NC(=O)[C@H](C(C)C)NC2=O)c1` [Compound 2658] ({CH2CO}-[Dap]Y(Carboxymethyl)D[Phe(3-Me)]V[Bip]E[Orn][dL][Dab][Cha]V[Dap]C[AEEA][Dab][Aun]-OH; thioether N-14), the pIC50 was 7.74.

For the origin of these results see US20260022142A1, “MACROCYCLIC IMMUNOMODULATORS” (Bristol-Myers Squibb Company, priority 2022, published 2026).
